Laboratory results reported in patent EP2970215B1, “PYRROLIDINE DERIVATIVES, PHARMACEUTICAL COMPOSITIONS CONTAINING THEM, AND THEIR USE IN THERAPY” (AbbVie Deutschland GmbH & Co. KG, priority 2013, dated 2014).
pKi: −log10 of the molar value.

Each compound was assayed against T1, human GlyT1c transporter (Homo sapiens, UniProt P48067) (assay: Radioligand binding assay using recombinant CHO cell membranes expressing human GlyT1). Conditions: radioligand binding to human GlyT1c transporter-expressing membranes.
T1 construct: expressed in transfected cells; host or cells: CHO cells (recombinant; line hGlyT1c_5_CHO is named for the uptake assay)
T1 sequence (P48067 1-706): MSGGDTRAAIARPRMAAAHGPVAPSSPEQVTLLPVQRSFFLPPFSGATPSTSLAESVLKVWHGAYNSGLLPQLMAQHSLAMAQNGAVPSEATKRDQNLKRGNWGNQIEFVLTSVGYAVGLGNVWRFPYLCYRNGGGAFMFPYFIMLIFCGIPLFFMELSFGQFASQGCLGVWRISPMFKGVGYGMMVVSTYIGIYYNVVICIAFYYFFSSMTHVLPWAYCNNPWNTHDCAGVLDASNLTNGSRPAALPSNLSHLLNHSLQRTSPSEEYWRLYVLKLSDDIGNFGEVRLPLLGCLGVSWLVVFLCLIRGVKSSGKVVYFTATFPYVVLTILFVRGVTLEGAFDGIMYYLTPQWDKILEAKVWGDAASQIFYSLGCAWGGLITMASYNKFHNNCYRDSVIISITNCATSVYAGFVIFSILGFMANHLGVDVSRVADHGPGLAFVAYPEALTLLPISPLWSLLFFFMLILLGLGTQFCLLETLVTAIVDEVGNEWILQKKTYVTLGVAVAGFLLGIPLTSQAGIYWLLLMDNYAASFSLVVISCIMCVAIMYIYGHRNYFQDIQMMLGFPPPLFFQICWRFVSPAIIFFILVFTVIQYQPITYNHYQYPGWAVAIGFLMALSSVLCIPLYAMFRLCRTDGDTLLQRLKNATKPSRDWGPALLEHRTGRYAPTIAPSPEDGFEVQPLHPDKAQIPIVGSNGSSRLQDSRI
From the text: 2. Radioligand binding assays using recombinant CHO cell membranes expressing human GlyT1: […]

| Compound | pKi |
| --- | --- |
| Cn1cnc(S(=O)(=O)N2C[C@H](NCc3nc(Br)cs3)[C@@H](c3ccccc3)C2)c1 [Example 472, (3R,4S)-N-[(4-bromo-1,3-thiazol-2-yl)methyl]-1-[(1-methyl-1H-imidazol-4-yl)sulfonyl]-4-phenylpyrrolidin-3-amine] | ≥ 6.00 |
| Cc1nc(C)c(S(=O)(=O)N2CC(Nc3ccc(F)c(F)c3)C(c3ccccc3)C2)s1 (centres unmarked) [Example 474, N-(3,4-difluorophenyl)-1-[(2,4-dimethyl-1,3-thiazol-5-yl)sulfonyl]-4-phenylpyrrolidin-3-amine] | ≥ 5.00 |
| Cc1nn(C(C)C)cc1S(=O)(=O)N1CC(Nc2ccc(F)c(F)c2)C(c2ccccc2)C1 (centres unmarked) [Example 475, N-(3,4-difluorophenyl)-1-{[3-methyl-1-(propan-2-yl)-1H-pyrazol-4-yl]sulfonyl}-4-phenylpyrrolidin-3-amine] | ≥ 5.00 |
| Cc1cc2c(cc1S(=O)(=O)N1CC(Nc3ccc(F)c(F)c3)C(c3ccccc3)C1)OCC(=O)N2 (centres unmarked) [Example 481, 7-({3-[(3,4-difluorophenyl)amino]-4-phenylpyrrolidin-1-yl}sulfonyl)-6-methyl-2H-1,4-benzoxazin-3(4H)-one] | ≥ 5.00 |
| Cc1c(S(=O)(=O)N2CC(Nc3ccc(F)c(F)c3)C(c3ccccc3)C2)cnn1C (centres unmarked) [Example 483, N-(3,4-difluorophenyl)-1-[(1,5-dimethyl-1H-pyrazol-4-yl)sulfonyl]-4-phenylpyrrolidin-3-amine] | ≥ 5.00 |
| O=S(=O)(N1CCCC1)N1CC(Nc2ccc(F)c(F)c2)C(c2ccccc2)C1 (centres unmarked) [Example 485, N-(3,4-difluorophenyl)-4-phenyl-1-(pyrrolidin-1-ylsulfonyl)pyrrolidin-3-amine] | ≥ 5.00 |
| Cc1nn(C)c(Cl)c1S(=O)(=O)N1CC(Nc2ccc(F)c(F)c2)C(c2ccccc2)C1 (centres unmarked) [Example 486, 1-[(5-chloro-1,3-dimethyl-1H-pyrazol-4-yl)sulfonyl]-N-(3,4-difluorophenyl)-4-phenylpyrrolidin-3-amine] | ≥ 5.00 |
| Cc1oncc1S(=O)(=O)N1CC(Nc2ccc(F)c(F)c2)C(c2ccccc2)C1 (centres unmarked) [Example 487, N-(3,4-difluorophenyl)-1-[(5-methyl-1,2-oxazol-4-yl)sulfonyl]-4-phenylpyrrolidin-3-amine] | ≥ 5.00 |
| Cc1ncc(S(=O)(=O)N2CC(Nc3ccc(F)c(F)c3)C(c3ccccc3)C2)n1C (centres unmarked) [Example 490, N-(3,4-difluorophenyl)-1-[(1,2-dimethyl-1H-imidazol-5-yl)sulfonyl]-4-phenylpyrrolidin-3-amine] | ≥ 5.00 |
| CC1CCN(S(=O)(=O)N2CC(Nc3ccc(F)c(F)c3)C(c3ccccc3)C2)CC1 (centres unmarked) [Example 493, N-(3,4-difluorophenyl)-1-[(4-methylpiperidin-1-yl)sulfonyl]-4-phenylpyrrolidin-3-amine] | ≥ 5.00 |
| O=S(=O)(CC1CCCCO1)N1CC(Nc2ccc(F)c(F)c2)C(c2ccccc2)C1 (centres unmarked) [Example 498, N-(3,4-difluorophenyl)-4-phenyl-1-[(tetrahydro-2H-pyran-2-ylmethyl)sulfonyl]pyrrolidin-3-amine] | ≥ 5.00 |
| O=c1[nH]c2ccc(S(=O)(=O)N3CC(Nc4ccc(F)c(F)c4)C(c4ccccc4)C3)cc2[nH]c1=O (centres unmarked) [Example 501, 6-({3-[(3,4-difluorophenyl)amino]-4-phenylpyrrolidin-1-yl}sulfonyl)-1,4-dihydroquinoxaline-2,3-dione] | ≥ 5.00 |
| Cn1ccc2cc(S(=O)(=O)N3CC(Nc4ccc(F)c(F)c4)C(c4ccccc4)C3)ccc21 (centres unmarked) [Example 503, N-(3,4-difluorophenyl)-1-[(1-methyl-1H-indol-5-yl)sulfonyl]-4-phenylpyrrolidin-3-amine] | ≤ 5.00 |

Second part, the compound after the results:

| pKi | Compound |
| --- | --- |
| ≥ 7.00 | Cc1nc(-c2ccccc2)sc1CN[C@H]1CN(S(=O)(=O)c2cn(C)cn2)C[C@@H]1c1ccccc1 [Example 473, (3R,4S)-1-[(1-methyl-1H-imidazol-4-yl)sulfonyl]-N-[(4-methyl-2-phenyl-1,3-thiazol-5-yl)methyl]-4-phenylpyrrolidin-3-amine] |
| ≥ 5.00 | O=S(=O)(c1cccnc1)N1CC(Nc2ccc(F)c(F)c2)C(c2ccccc2)C1 (centres unmarked) [Example 477, N-(3,4-difluorophenyl)-4-phenyl-1-(pyridin-3-ylsulfonyl)pyrrolidin-3-amine] |
| < 5.00 | O=c1[nH]c(=O)c2cc(S(=O)(=O)N3CC(Nc4ccc(F)c(F)c4)C(c4ccccc4)C3)ccc2[nH]1 (centres unmarked) [Example 480, 6-({3-[(3,4-difluorophenyl)amino]-4-phenylpyrrolidin-1-yl}sulfonyl)quinazoline-2,4(1H,3H)-dione] |
| ≥ 5.00 | Cc1csc(S(=O)(=O)N2CC(Nc3ccc(F)c(F)c3)C(c3ccccc3)C2)c1 (centres unmarked) [Example 484, N-(3,4-difluorophenyl)-1-[(4-methylthiophen-2-yl)sulfonyl]-4-phenylpyrrolidin-3-amine] |
| ≥ 5.00 | COC(=O)c1csc(S(=O)(=O)N2CC(Nc3ccc(F)c(F)c3)C(c3ccccc3)C2)c1OC (centres unmarked) [Example 491, methyl 5-({3-[(3,4-difluorophenyl)amino]-4-phenylpyrrolidin-1-yl}sulfonyl)-4-methoxythiophene-3-carboxylate] |
| ≤ 5.00 | CCc1ccc(S(=O)(=O)N2CC(Nc3ccc(F)c(F)c3)C(c3ccccc3)C2)s1 (centres unmarked) [Example 492, N-(3,4-difluorophenyl)-1-[(5-ethylthiophen-2-yl)sulfonyl]-4-phenylpyrrolidin-3-amine] |
| ≥ 5.00 | O=S(=O)(c1ccc(N2CCOCC2)nc1)N1CC(Nc2ccc(F)c(F)c2)C(c2ccccc2)C1 (centres unmarked) [Example 494, N-(3,4-difluorophenyl)-1-{[6-(morpholin-4-yl)pyridin-3-yl]sulfonyl}-4-phenylpyrrolidin-3-amine] |
| < 5.00 | O=S(=O)(c1ccc2c(c1)OCO2)N1CC(Nc2ccc(F)c(F)c2)C(c2ccccc2)C1 (centres unmarked) [Example 495, 1-(1,3-benzodioxol-5-ylsulfonyl)-N-(3,4-difluorophenyl)-4-phenylpyrrolidin-3-amine] |
| ≤ 5.00 | O=S(=O)(c1ccc2c(c1)OCCO2)N1CC(Nc2ccc(F)c(F)c2)C(c2ccccc2)C1 (centres unmarked) [Example 496, N-(3,4-difluorophenyl)-1-(2,3-dihydro-1,4-benzodioxin-6-ylsulfonyl)-4-phenylpyrrolidin-3-amine] |
| ≥ 5.00 | O=S(=O)(c1cnc2n1CCC2)N1CC(Nc2ccc(F)c(F)c2)C(c2ccccc2)C1 (centres unmarked) [Example 497, N-(3,4-difluorophenyl)-1-(6,7-dihydro-5H-pyrrolo[1,2-a]imidazol-3-ylsulfonyl)-4-phenylpyrrolidin-3-amine] |
| ≤ 5.00 | CC(=O)Nc1ncc(S(=O)(=O)N2CC(Nc3ccc(F)c(F)c3)C(c3ccccc3)C2)s1 (centres unmarked) [Example 499, N-[5-({3-[(3,4-difluorophenyl)amino]-4-phenylpyrrolidin-1-yl}sulfonyl)-1,3-thiazol-2-yl]acetamide] |
| ≥ 5.00 | O=S(=O)(c1ccc(C(F)(F)F)nc1)N1CC(Nc2ccc(F)c(F)c2)C(c2ccccc2)C1 (centres unmarked) [Example 500, N-(3,4-difluorophenyl)-4-phenyl-1-{[6-(trifluoromethyl)pyridin-3-yl]sulfonyl}pyrrolidin-3-amino] |
| ≥ 5.00 | O=c1[nH]c2ccc(S(=O)(=O)N3CC(Nc4ccc(F)c(F)c4)C(c4ccccc4)C3)cc2[nH]1 (centres unmarked) [Example 506, 5-({3-[(3,4-difluorophenyl)amino]-4-phenylpyrrolidin-1-yl}sulfonyl)-1,3-dihydro-2H-benzimidazol-2-one] |
